Oligonucleotides are written 5' to 3', each unit as a sugar letter and its base; * is a phosphorothioate linkage, no mark a phosphodiester; rarer units and linkages stand in square brackets, end groups in braces. Plain capitals give the bases only. {(C18)3CCH2} = lipid of three C18 alkyl chains on a quaternary carbon, linked through CH2-O-phosphodiester; {3LON} = triple hydrocarbon-chain lipid moiety added by triple chain phosphoramidite 4; d = 2'-deoxy (DNA)
What was measured:
[1] = Aggregation behavior of LONs in aqueous media; assay type: physicochemical
Experimental: As true surfactants, LONs can self assemble in aqueous media. […] The latter could be HPLC-purified and characterized by MS. […] […] Aqueous samples containing LONs were studied under different conditions including pure water and aqueous suspensions of varying ionic strength and temperature (25-45° C.). All the LONs investigated, namely ^3LON-T15, yielded small spherical objects ranging from approximately 8 to 20 nm in diameter as characterized by DLS, transmission and scanning electronic microscopies (TEM and SEM). […] The micellar architecture of these assemblies can be explained based upon the molecular dimensions of 15 nucleobase-long LONs. Indeed, such molecules are flexible, with cone shape structure and dimensions compatible with the self-aggregation into spherical micelles.

[2] = Size of LON aggregates by DLS, TEM and SEM; assay type: physicochemical
Experimental: Transmission Electron Microscopy (TEM). Samples were imaged by negative staining microscopy with a Hitachi H 7650 electron microscope. Samples containing LONs (concentrations and mean sizes are indicated in TEM images) were transferred to a carbon-coated copper grid for ten minutes. The sample was then dried and stained with 2.5% (W/W) of uranyl acetate in water for five minutes.
Scanning Electron Microscopy (SEM). Samples were examined at an accelerating voltage of 10 kV. Typically […] of sample containing the LON aggregates were dried spread on polished stainless steel platelets and then coated with a 6-10 nm layer of gold-palladium alloy under vacuum with a sputter Coater Balzers SCD050. Observations were made with a Philips XL30S FEG instrument.
(§1) As true surfactants, LONs can self assemble in aqueous media. […] The latter could be HPLC-purified and characterized by MS. […] Consequently, dynamic light scattering, transmission electron microscopy and SEM experiments were carried out with the solutions of one purified LON only. Aqueous samples containing LONs were studied under different conditions including pure water and aqueous suspensions of varying ionic strength and temperature (25-45° C.). All the LONs investigated, namely ^3LON-T15, yielded small spherical objects ranging from approximately 8 to 20 nm in diameter as characterized by DLS, transmission and scanning electronic microscopies (TEM and SEM). […] The micellar architecture of these assemblies can be explained based upon the molecular dimensions of 15 nucleobase-long LONs. Indeed, such molecules are flexible, with cone shape structure and dimensions compatible with the self-aggregation into spherical micelles.

[3] = Solubility of LONs in water; assay type: physicochemical; conditions: adenosine-containing versus thymidine LON
Experimental: At this point, the crude ^3LON-T15 and ^3LON-A15 behave quite differently. […] The LON eluted after ca. 42 min under these conditions. Fractions containing the LON were pooled and evaporated to dryness. The LON was dissolved in water and dried again two times to remove all residual traces of buffer. Yield of final ^3LON-T15 was excellent (40%).
as §1

TCTP protein = TCTP protein expression by western blot after transfection without Oligofectamine; assay type: cell-based, human; conditions: PC-3 prostatic cells; absence of Oligofectamine; 30 nM to 100 nM, in particular 100 nM; two or three days after transfection; LASO#Scr negative control
Experimental: Lipid-conjugated oligonucleotide, LASO#15 was tested on TCTP protein expression using western-blot (LASO#Scr was used as negative control).
(§2) Prostatic cell line were transfected with LASO#15 at various concentrations (from 30 nM to 100 nM), in OptiMEM® medium (Invitrogen), without serum and in the absence of Oligofectamine™ transfection reagent (Invitrogen).
(§3) Serum was added 4 hours after transfection. Two or three days after transfection, the level of TCTP protein expression and GAPDH (used as housekeeping gene) were determined by performing western blotting, and the in vitro growth inhibitory effects of LASO#15 on PC-3 cells were assessed using an MTT assay.
Western Blot analysis was performed as described previously (Rocchi et al., 2004, Cancer Res. 64:6595-602) with 1:2000 rabbit TCTP polyclonal antibody (Abcam Inc., Cambridge, UK). Loading levels were normalized using 1:5000 rabbit anti-glyceraldehyde-3-phosphate dehydrogenase polyclonal (Abcam Inc.).

PC-3 cells = assay: MTT assay, in vitro growth inhibitory effects; assay type: cell-based, human; conditions: transfection in the absence of Oligofectamine
Experimental: The CR prostate cancer cell line PC-3 was purchased from the American Type Culture Collection (Rockville, Md., USA). The cells were maintained in Dulbecco's Modified Eagle's Medium (Invitrogen, Cergy Pontoise, France), supplemented with 10% fetal calf serum (FCS).
as §2, §3
The MTT assay was performed as described previously (Rocchi et al., 2004, Cancer Res. 64:6595-602).

^3LON-T15: Triple chain polyT 15mer; dT15 (SEQ ID NO: 33) coupled at its 5′ end with triple chain phosphoramidite 4
aggregation on storage ([1]; after storage at −20° C.): slow aggregation tendency | effect of temperature on aggregate size ([2]; 25-45° C. range): poorly affected by temperature | sensitivity of aggregate size to ionic strength ([2]; DLS in water): poorly sensitive to ionic strength | change of micelle core on hybridization ([2]; DLS, hybridization of the complementary dA15, not observed with ncDNA): contraction of the core micelle is observed

^3LON-A15: Triple chain polyA 15mer; dA15 (SEQ ID NO: 32) coupled at its 5′ end with triple chain phosphoramidite 4 (DNA AAAAAAAAAAAAAAA; DNA, 5' {3LON}, backbone not given here)
solubility in water (relative) [3]: less soluble in water than their thymidine counterparts | aggregation after cleavage and deprotection ([1]; crude LON): immediate and irreversible aggregation

(C18)3CCH2—O—P(═O)(—O[−1])-O-5′-AACTTGTTTCCTGCAGGTGA-3′-OH (antisense {(C18)3CCH2}-dAdAdCdTdTdGdTdTdTdCdCdTdGdCdAdGdGdTdGdA) [LASO#15]
TCTP protein expression (western blot) (TCTP protein): specific inhibition of TCTP protein | growth of PC-3 cells (MTT assay) (PC-3 cells): inhibiting the growth of the PC-3 cells

From patent US9707250B2, “Hydrophobically modified antisense oligonucleotides comprising a triple alkyl chain” (INSTITUT NATIONAL DE LA SANTE ET DE LA RECHERCHE MEDICALE …, priority 2013, dated 2017)
